Drawing on ChEMBL document CHEMBL1147222, “Lowdenic acid: a new antifungal polyketide-derived metabolite from a new fungicolous Verticillium sp” (2003), this text covers zone of inhibition and MIC for one molecule.

≈ marks a conversion by molar mass, not a printed value.

What all share (format): functional
In one test the test system is Candida albicans. Put plainly: Antifungal activity against Candida albicans ATCC 90029 at 200 ug/disk by standard disk assay. The following applies: read-out: IZ.
Test [1] concerns Aspergillus flavus. In words: Antifungal activity against Aspergillus flavus NRRL 6541.
Test [2] deals with Aspergillus flavus. Put plainly: Antifungal activity against Aspergillus flavus NRRL 6541 at 250 ug/disk. The settings on record: read-out: IZ.
The next test has as its system Bacillus subtilis. Put plainly: Antibacterial activity against Bacillus subtilis ATCC 6051 at 200 ug/disk by standard disk assay. The settings on record: read-out: IZ.
Another test concerns Staphylococcus aureus. In words: Antibacterial activity against Staphylococcus aureus ATCC 29213 at 200 ug/disk by standard disk assay. The following applies: read-out: IZ.

Take `CCCCCCCCCC[C@@H](C)CCC[C@@]1(C)C=C/C(=C2/C(=O)O[C@H](CC(=O)O)C2=O)O1` [LOWDENIC ACID]: the zone of inhibition at 200 µg/disc with Candida albicans was determined as 9 mm; in the test on Bacillus subtilis it was 17 mm; in the test on Staphylococcus aureus, 12 mm. The molecule further showed an MIC in the test with Aspergillus flavus [1] of 6 µg/mL (≈ 13.4 µM). For the same molecule, the zone of inhibition at 250 µg/disc in the test with Aspergillus flavus [2] was determined as 14 mm.

As a reminder, the MIC is the lowest concentration that inhibits growth of the organism. A high value points to a less susceptible organism.
